# pEC50: −log10 of the molar value. Several values for one entry are separate records, joined by “and”; a condition that tells them apart may be missing. Equal values may be shown once. Read-outs that look alike come from different tables or passages of the source.
# Assays:
# [1] = Cytotoxicity in uninfected HEp-2 cells, single concentration of 200 μM replenished daily for 5 days; assay type: cell-based; conditions: human, solvent PBS (ribavirin: water)
# Source text: (§1) The tetrazolium based cell viability assay is based upon the ability of mitochondrial dehydrogenase which is present in viable cells to catalyze the reduction of a yellow tetrazolium salt known as MTT [3-(4,5-dimethylthiazol-2-yl)-2,5-diphenylthtiazolium bromide] to a dark blue/purple formazon product, generally as described by K. Rubino et al., J. Virological Methods, 39, 55-67 (1992)
# (§2) RSV infection results in a marked reduction in cell viability and thus a lowered rate of formazan production. The assay method gives a very low absorbance value (practically zero) in wells which contain virus-infected cells and no compound or a compound which lacks anti-RSV activity. Compounds which inhibit RSV replication should prevent cell death and will therefore result in an increased intensity of color of the formazan solution. The measurement of viral growth as a function of cell viability allows the assay to be used for establishing levels of compound cytotoxicity in uninfected cells within the same assay. Thus, the assay provides a rapid colorimetric method for measuring RSV specific cytopathic effect.
# (§3) The HEp-2 cells and RSV strain A2 virus which are used in the assay are publicly available and were obtained from the American Tissue Culture Collection. HEp-2 cells correspond to ATCC accession no. CCL32; and Respiratory Syncytial Virus, strain A2 corresponds to ATCC accession no. VR-1302. Respiratory syncytial virus was grown (i.e., multiplied) and titered in HEp-2 cells.
# (§4) The RSV inhibition assay was carried out as follows. The assay was performed in 96 well microtiter plates seeded with 2.5×10^4 cells per well. […] Detached cells were resuspended and carefully dispersed in Minimal Essential Medium (MEM) (JRH Biosciences cat. #210-3510) containing 2% FBS (fetal bovine serum) and the concentration of viable cells was determined by trypan blue exclusion. […]
# The cell suspension was divided into a first portion to which respiratory syncytial virus (RSV A2) was added at a multiplicity of infection of 1, and a second portion to which no virus was added. […] A multiplicity of infection equal to 1 was selected based on the observation this concentration of virus is just sufficient to produce a cytopathic effect that essentially eliminated MTT metabolism in infected, untreated cells during the time course of the assay (determined previously by a viral dilution assay).
# (§5) After the incubation period, MTT (Sigma Chemical Co., St. Louis, Mo., Cat. #M2128) was dissolved in serum free MEM to give a 3 mg/ml solution and 100 μl of MTT solution was added to each well and the plates further incubated for 2 hours at 37° C. […] The optical density of the formazan/isopropanol solution from each well was determined using a Dynatech MR5000 multiplate reader at 570 nm with a 630 nm reference. […]
# [2] = tested on: respiratory syncytial virus (RSV A2); test: RSV inhibition assay: tetrazolium (MTT) based cell viability assay in RSV-infected HEp-2 cells (serial dilutions); conditions: for pEC50: human respiratory syncytial virus
# Source text: as §1
# (§6) Formazan is only slightly soluble in aqueous solutions, and therefore appears as dark cell-associated crystals. The crystals may be readily solublized in an organic solvent and the absorbance of the resulting blue/purple solution may be quantified using a multi-well plate spectrophotometer.
# RSV infection results in a marked reduction in cell viability and thus a lowered rate of formazan production. […] The measurement of viral growth as a function of cell viability allows the assay to be used for establishing levels of compound cytotoxicity in uninfected cells within the same assay. Thus, the assay provides a rapid colorimetric method for measuring RSV specific cytopathic effect.
# as §3
# (§7) The RSV inhibition assay was carried out as follows. The assay was performed in 96 well microtiter plates seeded with 2.5×10^4 cells per well. To provide a sufficient number of cells to seed the plates, stock cultures of HEp-2 cells were first grown in tissue culture flasks to about 80-100% confluency. The cell layer was washed with room temperature PBS (without calcium and magnesium) and then trypsinized (JRH Biosciences cat. #59-22877P) in a minimal volume of trypsin solution at 37° C. to detach them from the growth surface. Detached cells were resuspended and carefully dispersed in Minimal Essential Medium (MEM) (JRH Biosciences cat. #210-3510) containing 2% FBS (fetal bovine serum) and the concentration of viable cells was determined by trypan blue exclusion. Cell density was adjusted to 2.5×10^5 viable cells/ml by further dilution in MEM+2% FBS.
# (§8) Test compound(s) and positive control (ribavirin) were added and serially diluted in the microtiter plate to the desired concentrations (8 replicates/compound/concentration plus 8 control wells/plate which received no compound).
# The cell suspension was divided into a first portion to which respiratory syncytial virus (RSV A2) was added at a multiplicity of infection of 1, and a second portion to which no virus was added. The virus-infected cell suspension was mixed by low speed vortexing and 100 μl of the virus-infected cell suspension was immediately added to half of the wells in the 96 well plate (corresponding to 4 replicates of each compound dilution). 100 μl of the virus-free cell suspension was added to the other half of the wells in the microtiter plate (corresponding to the other 4 replicates for each compound and dilution).
# The plates were incubated at 37° C., 5% CO2 for 5 to 6 days.
# After the incubation period, MTT (Sigma Chemical Co., St. Louis, Mo., Cat. #M2128) was dissolved in serum free MEM to give a 3 mg/ml solution and 100 μl of MTT solution was added to each well and the plates further incubated for 2 hours at 37° C. The reaction was stopped by aspiration of the media to chemical waste, being careful not to remove the formazan crystals, and 200 μl of isopropanol was added to the wells to dissolve the crystals.
# [3] = Cytotoxicity in uninfected HEp-2 cells (MTT), same assay; assay type: cell-based; conditions: human, hep-2 cells
# Source text: as §1, §6, §2, §3, §7, §8
# (§9) The cell suspension was divided into a first portion to which respiratory syncytial virus (RSV A2) was added at a multiplicity of infection of 1, and a second portion to which no virus was added. The virus-infected cell suspension was mixed by low speed vortexing and 100 μl of the virus-infected cell suspension was immediately added to half of the wells in the 96 well plate (corresponding to 4 replicates of each compound dilution). 100 μl of the virus-free cell suspension was added to the other half of the wells in the microtiter plate (corresponding to the other 4 replicates for each compound and dilution). A multiplicity of infection equal to 1 was selected based on the observation this concentration of virus is just sufficient to produce a cytopathic effect that essentially eliminated MTT metabolism in infected, untreated cells during the time course of the assay (determined previously by a viral dilution assay).
# (§10) The plates were incubated at 37° C., 5% CO2 for 5 to 6 days. […]
# [4] = tested on: HEp-2 cells; test: as above; assay type: cell-based; conditions: 5 day assay, drug added on day 1, 7200 min
# Source text: as §1, §6, §2, §3, §7, §8, §9, §10
# [5] = tested on: respiratory syncytial virus (RSV A2); assay type: cell-based; conditions: human, hep-2 cells, 120 h, 200 µM
# Source text: as §1
# RSV infection results in a marked reduction in cell viability and thus a lowered rate of formazan production. The assay method gives a very low absorbance value (practically zero) in wells which contain virus-infected cells and no compound or a compound which lacks anti-RSV activity. […]
# as §4, with “follows.” for “follows. The assay was performed in 96 well microtiter plates seeded with 2.5×10^4 cells per well.”
# as §5
# [6] = cited from earlier work
smiles,measurement,setting,value
"CCCCN1C[C@H](O)[C@@H](O)[C@H](O)[C@H]1CO [Ex. 6, 1,5-(Butylimino) -1,5-dideoxy-D-glucitol]","cytotoxicity at 120 h, 200 µM",[1],17%
same,pEC50,"[2]; HEp-2, 120 h, HEp-2, solvent PBS, 5 day assay, drug replenished daily, read-out: ~EC50",4.35
same,pEC50,"[2]; HEp-2, 120 h, HEp-2, solvent PBS, 5 day assay, drug replenished on day [number not given], read-out: ~EC50",3.73
same,pEC50,"[2]; HEp-2, HEp-2, solvent DMSO, 6 day assay, drug added on day 1, extrapolated, read-out: ~EC50",3.60
same,pEC50,"[2]; HEp-2, HEp-2, solvent PBS, 6 day assay, drug added on day 1, read-out: ~EC50",3.37
same,CTI,"[2]; solvent PBS, 5 day assay, drug added on day 1, from extrapolated CC50 and EC50",275.5
same,CTI,"[2]; solvent PBS, 6 day assay, drug added on day 1, from extrapolated CC50, 7200 min",21.8
same,CC50 at 120 h,"[3]; solvent DMSO, 5 day assay, drug added on day 1",100 µM
same,CC50 at 120 h,"[3]; solvent DMSO, 6 day assay, drug added on day 1, extrapolated",365 µM
same,CC50 at 120 h,"[3]; solvent PBS, 5 day assay, drug added on day 1, extrapolated",76200 µM
same,CC50 at 120 h,"[3]; solvent PBS, 6 day assay, drug added on day 1, extrapolated",9400 µM
same,CC50,[4]; solvent DMSO,156 µM
"NC(=O)c1ncn([C@@H]2O[C@H](CO)[C@@H](O)[C@H]2O)n1 [ribavirin, 1-beta-D-ribofuranosyl-1H-1,2,4-triazole-3-carboxamide]","cytotoxicity at 120 h, 200 µM",[1],65%
same,% CELL PROTECTION / % CYTOTOXICITY (CTI),[5],1.6
same,pEC50,"[2]; HEp-2, 120 h, HEp-2, solvent water, 5 day assay, drug replenished daily",7.00
same,pEC50,"[2]; HEp-2, 120 h, HEp-2, solvent water, 5 day assay, drug replenished on day [number not given]",5.59
same,pEC50,"[2]; HEp-2, HEp-2, solvent water, 6 day assay, drug added on day 1",4.72
same,CC50 at 120 h,"[3]; solvent water, 5 day assay, drug added on day 1",38.3 µM
same,CC50 at 120 h,"[3]; solvent water, 5 day assay, drug replenished daily",40 µM
same,CC50 at 120 h,"[3]; solvent water, 5 day assay, drug replenished on day [number not given]",20.4 µM
same,CC50 at 120 h,"[3]; solvent water, 6 day assay, drug added on day 1",179 µM
same,CC50,[4]; solvent water,32.4 µM and 62.8 µM and 52.4 µM
"OCC1C(O)C(O)C(O)CN1CCCc1ccccc1 [compound 43, 1,5-(3-Phenylpropylimino)-1,5-dideoxy-D-glucitol]","cytotoxicity at 120 h, 200 µM",[1],10%
"CCCCN1CC(OC(C)=O)C(OC(C)=O)C(OC(C)=O)C1COC(C)=O [Ex. 7, 1,5-(Butylimino)-1,5-dideoxy-D-glucitol, tetraacetate]","cytotoxicity at 120 h, 200 µM",[1],11%
same,enzymatic conversion in vivo of prodrug,[6],enzymatically converted in vivo to the compound of Ex. 6

# Reference: patent publication US5622972A, “Method for treating a mammal infected with respiratory syncytial virus” (priority 1996, dated 1997)
